From article PMC7665585, “Antidepressive effect of an inward rectifier K^+ channel blocker peptide, tertiapin-RQ” (PLoS ONE, 2020)
“Also recorded” adds a separate entry of the source. Bridge positions count the residues as written; N and C are the ends. Ends that are not written are not given here. Peptide text beside a SMILES is read from it.

Columns and labels:
Male ICR mice [1] = test: Tail suspension test (TST); format: in vivo, mouse
Method: We performed mouse behavioral experiments in accordance with our previous study. Male ICR mice (n = 199 in total) aged 5 weeks old were purchased from Shimizu Laboratory Supplies (Kyoto, Japan) and maintained in an animal facility for 7–12 days. They had free access to food and water and were kept in a 12-h light/dark cycle (08:00–20:00). Experiments were carried out between 11:00 and 17:00 in a quiet and air-conditioned experimental room, to which mice were habituated for 30–60 min before each experiment. Animal experiments were performed in accordance with the guidelines of the Physiological Society of Japan and were approved by the Committee for Animal Experiments of Kurashiki University of Science and the Arts. Peptides were dissolved in phosphate-buffered saline (PBS). Peptides were injected intracerebroventricularly (i.c.v.) 30 min before behavioral tests (typically 5 μL/mouse), according to a previous study. The mouse was placed into an anesthetizing jar, to which isoflurane (0.2 mL) was added immediately before. After confirming that the mouse was deeply anesthetized we injected the peptide into the right cerebral ventricle over 30 seconds and the injection needle was kept for 1 min after the injection (i.c.v. coordinates: 0 mm caudal to bregma, 1.0 mm lateral to the midline, and 3.5 mm below the skull). The mouse was placed in a cage set on a heating pad (approximately 33°C) for a few minutes until it spontaneously started to move, and then it was put back into its home cage. Each animal was used only once, except for the wheel running test, which was carried out immediately after the elevated plus-maze.
The tail suspension test (TST) was performed in accordance with the method reported previously. The mouse was hung on a hook using adhesive tape placed 2 cm from the extremity of its tail 50 cm above a table. The amount of time spent immobile was recorded for 5 min.

rat ROMK = target: T1, rat ROMK (Rattus norvegicus, UniProt P35560); test: Whole-cell patch-clamp of ROMK currents in 208–4 cells; format: cell-based; details: for inhibition at 1 µM: n = 3–6, read-out: Activity (ROMK channel blocking activity, percentage of blockade at 1 μM)
T1 construct: expressed in transfected cells; host or cells: 293T cell line 208-4 (lentiviral transduction, GFP coexpressed)
T1 sequence (P35560 1-391): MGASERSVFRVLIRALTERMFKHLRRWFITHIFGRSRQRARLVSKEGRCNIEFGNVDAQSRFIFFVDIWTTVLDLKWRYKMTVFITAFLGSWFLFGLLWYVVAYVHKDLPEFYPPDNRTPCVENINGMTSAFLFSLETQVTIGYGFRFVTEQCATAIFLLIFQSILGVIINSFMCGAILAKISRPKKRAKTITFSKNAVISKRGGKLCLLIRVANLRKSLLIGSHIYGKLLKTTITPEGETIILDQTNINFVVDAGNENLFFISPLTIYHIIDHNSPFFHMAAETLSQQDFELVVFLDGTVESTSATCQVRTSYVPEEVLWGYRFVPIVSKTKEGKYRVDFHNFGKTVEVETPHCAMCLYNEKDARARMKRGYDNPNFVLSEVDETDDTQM
Outline: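 ROMK stably expressed in 208–4 cells; GIRK transiently in 293T, recorded 24 h post-transfection; 25°C, Tyrode (high-K+ 50 mM for GIRK), K-aspartate/KCl pipette with 3 mM MgATP. Steps −150 to 10 mV from −70 mV; currents 60 s after peptide; conductance from I-V slope −140 to −100 mV, Ba2+-resistant current subtracted, normalized to 0 μM TPN.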

Male ICR mice [2] = test: Forced swim test (FST); format: in vivo, mouse; details: i.c.v., 30 min before test, last 4 min of 6 min
Method: We performed mouse behavioral experiments in accordance with our previous study. Male ICR mice (n = 199 in total) aged 5 weeks old were purchased from Shimizu Laboratory Supplies (Kyoto, Japan) and maintained in an animal facility for 7–12 days. They had free access to food and water and were kept in a 12-h light/dark cycle (08:00–20:00). Experiments were carried out between 11:00 and 17:00 in a quiet and air-conditioned experimental room, to which mice were habituated for 30–60 min before each experiment. Animal experiments were performed in accordance with the guidelines of the Physiological Society of Japan and were approved by the Committee for Animal Experiments of Kurashiki University of Science and the Arts. Peptides were dissolved in phosphate-buffered saline (PBS). Peptides were injected intracerebroventricularly (i.c.v.) 30 min before behavioral tests (typically 5 μL/mouse), according to a previous study. The mouse was placed into an anesthetizing jar, to which isoflurane (0.2 mL) was added immediately before. […]
The forced swim test (FST) was performed in accordance with the method reported previously. […] The mouse was allowed to swim for 6 min and its activity was measured. […]

[3] = blockade at 1 μM estimated from fitted Hill curve (four parameters), whole-cell conductance

Row | Compound | inhibition at 1 µM (rat ROMK; [3]) [%] | also measured
1 | TPN-RQ(C3S) [Peptide 45] |  | immobile time in TST (Male ICR mice [1]; 750 pmole i.c.v., 30 min before test, 5 min recording): decreased the immobile time insignificantly; Activity (ROMK channel blocking activity, percentage of blockade at 1 μM) (rat ROMK; blockade at 1 μM estimated from fitted Hill curve (four parameters), whole-cell conductance, n = 3–6): - (-, <20%); ROMK blocking activity (in words) (rat ROMK; whole-cell recordings, listed as TPN-C3S): little blocking activity; also recorded: scarcely blocked the channel; immobile time in FST (Male ICR mice [2]): decreased the immobile time insignificantly
2 | O=[N+]([O-])c1ccc2nc(COCc3nc4ccc([N+](=O)[O-])cc4[nH]3)[nH]c2c1 [VU591] |  | immobile time in TST (Male ICR mice [1]; i.c.v., 5 μL of 20 mM in dimethyl sulfoxide, n = 4 and 5): significantly decreased the immobile time
3 | RIIIPHQK-NH2 [Peptide 21, TPN-Q 7–13 + K] | < 20 | 
4 | RRIIPHAK-NH2 [Peptide 29, TPN-RQ 7-13(Q13A) + K] | < 20 | 
5 | CC[C@H](C)[C@@H]1NC(=O)[C@H](CCCNC(=N)N)NC(=O)[C@H](CCCNC(=N)N)NC(=O)[C@H](CC(N)=O)NC(=O)[C@@H]2CSSC[C@@H](C(=O)NCC(=O)N[C@@H](CCCCN)C(=O)N[C@@H](CCCCN)C(N)=O)NC(=O)[C@H](CCCCN)NC(=O)[C@H](CCCCN)NC(=O)[C@H](Cc3c[nH]c4ccccc34)NC(=O)[C@H](CSSC[C@H](NC(=O)[C@H](CC(C)C)NC(=O)[C@H](C)N)C(=O)N[C@@H](CC(N)=O)C(=O)N2)NC(=O)[C@H](CCC(N)=O)NC(=O)[C@H](C)NC(=O)[C@@H]2CCCN2C(=O)[C@H]([C@@H](C)CC)NC1=O [Peptide 63, TPN-RQ(H12A)] (H-ALCNCNRRIIPAQCWKKCGKK-NH2; disulfide 3-14, 5-18) | 40 to 60 | 
6 | CC[C@H](C)[C@@H]1NC(=O)[C@H](CCCNC(=N)N)NC(=O)[C@H](CCCNC(=N)N)NC(=O)[C@H](CC(N)=O)NC(=O)[C@@H](NC(=O)[C@H](CC(N)=O)NC(=O)[C@H](CO)NC(=O)[C@H](CC(C)C)NC(=O)[C@H](C)N)CSSC[C@@H](C(=O)NCC(=O)N[C@@H](CCCCN)C(=O)N[C@@H](CCCCN)C(N)=O)NC(=O)[C@H](CCCCN)NC(=O)[C@H](CCCCN)NC(=O)[C@H](Cc2c[nH]c3ccccc23)NC(=O)[C@H](CO)NC(=O)[C@H](CCC(N)=O)NC(=O)[C@H](Cc2c[nH]cn2)NC(=O)[C@@H]2CCCN2C(=O)[C@H]([C@@H](C)CC)NC1=O [Peptide 50, TPN-RQ(C3S/C14S)] (H-ALSNCNRRIIPHQSWKKCGKK-NH2; disulfide 5-18) | < 20 | 
7 | NCNRIIIP-NH2 [Peptide 7, TPN 4–11] | < 20 | 
